Legend:
Assay type in all cases: cell-based
[1] = test system: human GAPDH mRNA; test: GAPDH specificity screen in human MCF7 cells (β-Actin normalised qRT-PCR); conditions: normalised to β-Actin, three experiments, mean ± S.D.
Method: A series of probes and primers were used to detect the various mRNA transcripts of the genes of β-Actin (human cell line only), and of GATA3 and GAPDH in mouse and human cell lines. All Taqman probes and primers for the experiments here-in described were supplied as pre-validated sets by Applied Biosystems, Inc. (see Table 2).
The assays were performed on an ABI 7900 instrument, according to the manufacturer's instructions. A TaqMan Gene Expression Master Mix (provided in the Cells-to-CT™, Applied Biosystems, Cat #4399002) was used. The PCR reactions were carried out at 50° C. for 2 min, 95° C. for 20 min followed by 40 cycles at 95° C. for 15 secs and 60° C. for 1 min.
The expression level of the gene of interest and % knock-down was calculated using Comparative Ct method: […]
These same three siNAs were tested for specificity in the human MCF7 cell line at 10 nM concentration to determine the effect of the GATA3 siNAs on the mRNA transcript of human GAPDH. In this assay, the samples from the primary screen, discussed above, O-Actin, a ubiquitously expressed ‘house-keeping’ gene, served as an endogenous control for normalization of the data.

[2] = test system: GATA3 mRNA; test: GATA3 mRNA knock-down (Taqman qRT-PCR) after RNAiMax transfection of human MCF7 cells; screen and IC50 dose response; conditions: for % KD Human: 10 nM siNA, 24 hrs; for % KD GATA3 mRNA at 10 nM: Table 4, MCF7 cells; for % KD GATA3 10 nM: Table 5, MCF7 cells
How it was run: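 MCF7 cells (5000/well, 24 h) transfected with siNA–RNAiMax complexes at 10 nM final siNA for 24 h without media change. GATA3 mRNA measured by TaqMan qRT-PCR, alongside β-actin and GAPDH probes. % knock-down by comparative Ct (2^−ΔΔCt) relative to non-targeting control siNA.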

[3] = test system: GATA3 mRNA; test: GATA3 mRNA knock-down (Taqman qRT-PCR) after RNAiMax transfection of mouse RAG cells; conditions: 10 nM siNA, 24 hrs, average of 2 experiments
How it was run: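 Murine RAG cells, 5000/well, transfected 24 h after plating with siNA (10 nM final) complexed with RNAiMax, harvested after 24 h. GATA3 mRNA quantified by TaqMan qRT-PCR with GAPDH reference; % knock-down by comparative Ct (2^−ΔΔCt) versus non-targeting control siNA.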

[4] = mean ± S.D., * Hs00231122_m1 Taqman Assay
[5] = mean ± S.D., ** Hs00922328_m1 Taqman Assay

30263-DC: GATA3 siNA duplex, site 817: sense B cGccucuGcuucAuGGAuc TTB (SEQ 79), antisense GAUccAuGAAGcAGAGGcGUU (SEQ 80) (sense CGCCUCUGCUUCAUGGAUCTT; antisense GAUCCAUGAAGCAGAGGCGUU; chemistry not fully specified)
% KD GAPDH 10 nM [1]: 11 ± 4% | % KD Human ([2]; MCF7 cells, * Hs00231122_m1 Taqman Assay): 74 ± 5* % | % KD Human ([2]; MCF7 cells, ** Hs00922328_m1 Taqman Assay): 60 ± 10** % | IC50 ([2]; MCF7 cells, mean ± S.D.): 0.104 ± 0.041 nM | % KD GATA3 mRNA at 10 nM [2, 4]: 74 ± 5* % | % KD GATA3 mRNA at 10 nM [2, 5]: 60 ± 10** % | % KD GATA3 10 nM [2, 4]: 74 ± 5* % | % KD GATA3 10 nM [2, 5]: 60 ± 10** % | % KD Mouse [3]: 9 ± 13%

Reference: patent publication US20120029054A1, “RNA Interference Mediated Inhibition of GATA Binding Protein 3 (GATA3) Gene Expression Using Short Intefering Nucleic Acid (siNA)” (Merck Sharp & Dohme Corp., priority 2009, published 2012)
